Reference: patent US8357694B2, “Substituted 5,6-dihydro-6-phenylbenzo[F]isoquinolin-2-amine compounds” (ArQule, Inc., priority 2008, dated 2013)
Counter-ions that a name gives are not always drawn.

`Brc1ccc([C@H]2Cc3cnc(Nc4ccc(CCN5CCCCC5)cc4)nc3-c3ccccc32)cc1` (as salt: hydrochloride) [Example 108, (R)-6-(4-bromophenyl)-N-(4-(2-(piperidin-1-yl)ethyl)phenyl)-5,6-dihydrobenzo[h]quinazolin-2-amine hydrochloride salt] and `Clc1ccc(C2Cc3cnc(Nc4ccc(CCN5CCCCC5)cc4)nc3-c3ccccc32)cc1` (stereo not shown) (as salt: hydrochloride) [Example 53, 6-(4-chlorophenyl)-N-(4-(2-(piperidin-1-yl)ethyl)phenyl)-5,6 dihydrobenzo[h]quinazolin-2-amine] fall in the same range of melting point: 170 to 175 °C for the first, 170 to 175 °C for the second.

First: CCCCN(C)CCc1ccc(Nc2ncc3c(n2)-c2ccccc2C(c2ccccc2C(F)(F)F)C3)cc1 (stereo not shown) [Example 68, N-(4-(2-(butyl(methyl)amino)ethyl)phenyl)-6-(2-(trifluoromethyl)phenyl)-5,6-dihydrobenzo[h]quinazolin-2-amine]
Second: COCCNCCc1ccc(Nc2ncc3c(n2)-c2ccccc2C(c2ccccc2C(F)(F)F)C3)cc1 (stereo not shown) [Example 70, N-(4-(2-(2-methoxyethylamino)ethyl)phenyl)-6-(2-(trifluoromethyl)phenyl)-5,6-dihydrobenzo[h]quinazolin-2-amine]
The melting point of the first is higher: 80 to 82 °C for the first, 61 to 62 °C for the second.

First: OCCc1ccc(Nc2ncc3c(n2)-c2ccccc2C(c2ccc(F)c(F)c2)C3)cc1 (stereo not shown) [Example 23, 2-(4-(6-(3,4-difluorophenyl)-5,6-dihydrobenzo[h]quinazolin-2-ylamino)phenyl)ethanol]
Second: OCCc1ccc(Nc2ncc3c(n2)-c2ccccc2[C@@H](c2ccc(Cl)c(Cl)c2)C3)cc1
The melting point of the first is higher: 170 to 172 °C for the first, 113 to 115 °C for the second.

First: Fc1ccc(C2Cc3cnc(NCCCN4CCCCC4)nc3-c3ccccc32)cc1 (stereo not shown) [Example 16, 6-(4-fluorophenyl)-N-(3-(piperidin-1-yl)propyl)-5,6-dihydrobenzo[h]quinazolin-2-amine]
Second: Clc1ccc([C@H]2Cc3cnc(Nc4ccc(CCN5CCCCC5)cc4)nc3-c3ccccc32)cc1Cl
The melting point of the first is lower: 60 to 62 °C for the first, 157 to 158 °C for the second.

First: CN1CCN(CCc2ccc(Nc3ncc4c(n3)-c3ccccc3C(c3ccccc3C(F)(F)F)C4)cc2)CC1 (stereo not shown) [Example 71, N-(4-(2-(4-methylpiperazin-1-yl)ethyl)phenyl)-6-(2-(trifluoromethyl)phenyl)-5,6 dihydrobenzo[h]quinazolin-2-amine]
Second: COCCN1CCN(CCc2ccc(Nc3ncc4c(n3)-c3ccccc3C(c3ccccc3C(F)(F)F)C4)cc2)CC1 (stereo not shown) [Example 69, N-(4-(2-(4-(2-methoxyethyl)piperazin-1-yl)ethyl)phenyl)-6-(2-(trifluoromethyl)phenyl)-5,6-dihydrobenzo[h]quinazolin-2-amine]
The melting point of the first is higher: 157 to 158 °C for the first, 139 to 140 °C for the second.

Compared with `CCCCN(C)CCc1ccc(Nc2ncc3c(n2)-c2ccccc2[C@@H](c2ccc(Br)cc2)C3)cc1` (as salt: hydrochloride) [Example 107, (R)-6-(4-bromophenyl)-N-(4-(2-(butyl(methyl)amino)ethyl)phenyl)-5,6-dihydrobenzo[h]quinazolin-2-amine hydrochloride salt], `CCCCN(C)CCc1ccc(Nc2ncc3c(n2)-c2ccccc2[C@H](c2ccc(F)cc2)C3)cc1` [Example 99, (S)—N-(4-(2-(butyl(methyl)amino)ethyl)phenyl)-6-(4-fluorophenyl)-5,6-dihydrobenzo[h]quinazolin-2-amine] is higher in melting point: 140 to 145 °C for the first, 164 to 166 °C for the second.

First: CN(CCc1ccc(Nc2ncc3c(n2)-c2ccccc2[C@H](c2ccc(F)c(F)c2)C3)cc1)C1CCCCC1 (as salt: hydrochloride) [Example 85, (S)—N-(4-(2-(cyclohexyl(methyl)amino)ethyl)phenyl)-6-(3,4-difluorophenyl)-5,6-dihydrobenzo[h]quinazolin-2-amine hydrochloride]
Second: CN(CCc1ccc(Nc2ncc3c(n2)-c2ccccc2C(c2ccc(Cl)c(Cl)c2)C3)cc1)C1CCCCC1 (stereo not shown) [Example 30, N-(4-(2-(cyclohexyl(methyl)amino)ethyl)phenyl)-6-(3,4-dichlorophenyl)-5,6-dihydrobenzo[h]quinazolin-2-amine]
The melting point of the first is lower: 96 to 98 °C for the first, 130 to 131 °C for the second.

First: CN(CCc1ccccc1)CCc1ccc(Nc2ncc3c(n2)-c2ccccc2[C@H](c2ccccc2F)C3)cc1 (as salt: hydrochloride) [Example 93, (R)-6-(2-fluorophenyl)-N-(4-(2-(methyl(phenethyl)amino)ethyl)phenyl)-5,6-dihydrobenzo[h]quinazolin-2-amine hydrochloride salt]
Second: CN(CCc1ccc(Nc2ncc3c(n2)-c2ccccc2C(c2cccc(Br)c2)C3)cc1)CCc1ccccn1 (stereo not shown) [Example 36, 6-(3-bromophenyl)-N-(4-(2-(methyl(2-(pyridin-2-yl)ethyl)amino)ethyl)phenyl)-5,6-dihydrobenzo[h]quinazolin-2-amine]
The melting point of the first is higher: 135 to 145 °C for the first, 75 to 77 °C for the second.

`CN(CCc1ccc(Nc2ncc3c(n2)-c2ccccc2[C@H](c2ccc(F)cc2)C3)cc1)C1CCCCC1` [Example 102, (S)—N-(4-(2-(cyclohexyl(methyl)amino)ethyl)phenyl)-6-(4-fluorophenyl)-5,6-dihydrobenzo[h]quinazolin-2-amine] and `CN(CCc1ccc(Nc2ncc3c(n2)-c2ccccc2[C@H](c2ccccc2F)C3)cc1)C1CCCCC1` (as salt: HCl) [Example 95, (R)—N-(4-(2-(cyclohexyl(methyl)amino)ethyl)phenyl)-6-(2-fluorophenyl)-5,6-dihydrobenzo[h]quinazolin-2-amine] cannot be ordered by melting point: 160 to 162 °C for the first, 158 to 164 °C for the second.

Compared with `CN(C)CCN(CCc1ccc(Nc2ncc3c(n2)-c2ccccc2C(c2cccc(Br)c2)C3)cc1)Cc1ccccc1` (stereo not shown) [Example 38, N^1-benzyl-N-1-(4-(6-(3-bromophenyl)-5,6-dihydrobenzo[h]quinazolin-2-ylamino)phenethyl)-N^2,N^2-dimethylethane-1,2-diamine], `Brc1cccc(C2Cc3cnc(Nc4ccc(CCNCc5ccccc5)cc4)nc3-c3ccccc32)c1` (stereo not shown) [Example 46, N-(4-(2-(benzylamino)ethyl)phenyl)-6-(3-bromophenyl)-5,6-dihydrobenzo[h]quinazolin-2-amine] is higher in melting point: 68 to 70 °C for the first, 98 to 100 °C for the second.

First: Clc1ccc([C@@H]2Cc3cnc(Nc4ccccc4)nc3-c3ccccc32)cc1Cl [Example 15, (S)-6-(3,4-dichlorophenyl)-N-phenyl-5,6-dihydrobenzo[h]quinazolin-2-amine]
Second: CCCCN(C)CCc1ccc(Nc2ncc3c(n2)-c2ccccc2C(c2ccc(Cl)cc2)C3)cc1 (stereo not shown) (as salt: hydrochloride)
The melting point of the first is higher: 159 °C for the first, 145 to 150 °C for the second.

First: CC(C)(C)OC(=O)N1CCN(CCc2ccc(Nc3ncc4c(n3)-c3ccccc3C(c3ccccc3C(F)(F)F)C4)cc2)CC1 (stereo not shown) [Example 72, tert-butyl 4-(4-(6-(2-(trifluoromethyl)phenyl)-5,6-dihydrobenzo[h]quinazolin-2-ylamino)phenethyl)piperazine-1-carboxylate]
Second: COCCN1CCN(CCc2ccc(Nc3ncc4c(n3)-c3ccccc3[C@@H](c3ccccc3Cl)C4)cc2)CC1 (as salt: hydrochloride)
The melting point of the first is higher: 234 to 235 °C for the first, 143 to 145 °C for the second.

`COCCN1CCN(CCc2ccc(Nc3ncc4c(n3)-c3ccccc3C(c3ccc(Cl)cc3Cl)C4)cc2)CC1` (stereo not shown) (as salt: hydrochloride) and `COCCN1CCN(CCc2ccc(Nc3ncc4c(n3)-c3ccccc3C(c3ccc(Cl)cc3)C4)cc2)CC1` (stereo not shown) (as salt: hydrochloride) [Example 56, 6-(4-chlorophenyl)-N-(4-(2-(4-(2-methoxyethyl)piperazin-1-yl)ethyl)phenyl)-5,6-dihydrobenzo[h]quinazolin-2-amine hydrochloride] cannot be ordered by melting point: 208 to 212 °C for the first, 204 to 214 °C for the second.

`CC(C)(C)OC(=O)N1CCC[C@@H](Nc2ncc3c(n2)-c2ccccc2[C@@H](c2ccc(Cl)c(Cl)c2)C3)C1` and `CC(C)(C)OC(=O)N1CCC[C@@H](Nc2ncc3c(n2)-c2ccccc2[C@H](c2ccc(Cl)c(Cl)c2)C3)C1` fall in the same range of melting point: 85 to 87 °C for the first, 85 to 87 °C for the second.

Compared with `COCCN1CCN(CCc2ccc(Nc3ncc4c(n3)-c3ccccc3[C@H](c3ccc(F)c(F)c3)C4)cc2)CC1` (as salt: hydrochloride) [Example 83, N-(4-(2-(4-(2-(S)-6-(3,4-difluorophenyl)-N-(4-(2-(4-(2-methoxyethyl)piperazin-1-yl)ethyl)phenyl)-5,6-dihydrobenzo[h]quinazolin-2-amine hydrochloride], `COCCN1CCN(CCc2ccc(Nc3ncc4c(n3)-c3ccccc3C(c3ccc(F)c(F)c3)C4)cc2)CC1` (stereo not shown) [Example 59, 6-(3,4-difluorophenyl)-N-(4-(2-(4-(2-methoxyethyl)piperazin-1-yl)ethyl)phenyl)-5,6-dihydrobenzo[h]quinazolin-2-amine] is higher in melting point: 190 to 192 °C for the first, 267 to 270 °C for the second.

Compared with `Fc1ccccc1[C@@H]1Cc2cnc(Nc3ccc(CCN4CCCCC4)cc3)nc2-c2ccccc21` (as salt: hydrochloride) [Example 67, (R)-6-(2-fluorophenyl)-N-(4-(2-(piperidin-1-yl)ethyl)phenyl)-5,6-dihydrobenzo[h]quinazolin-2-amine hydrochloride], `Fc1ccc([C@@H]2Cc3cnc(Nc4ccc(CCN5CCOCC5)cc4)nc3-c3ccccc32)cc1F` (as salt: hydrochloride) [Example 92, (S)-6-(3,4-difluorophenyl)-N-(4-(2-morpholinoethyl)phenyl)-5,6-dihydrobenzo[h]quinazolin-2-amine hydrochloride] is lower in melting point: 170 to 174 °C for the first, 97 to 99 °C for the second.

First: COCCN1CCN(CCc2cc(Nc3ncc4c(n3)-c3ccccc3[C@H](c3ccccc3F)C4)ccc2F)CC1 (as salt: hydrochloride) [Example 175, (R)—N-(4-fluoro-3-(2-(4-(2-methoxyethyl)piperazin-1-yl)ethyl)phenyl)-6-(2-fluorophenyl)-5,6-dihydrobenzo[h]quinazolin-2-amine hydrochloride salt]
Second: COCCN1CCN(CCc2cccc(Nc3ncc4c(n3)-c3ccccc3[C@@H](c3ccccc3F)C4)c2)CC1 (as salt: hydrochloride) [Example 164, (S)-6-(2-fluorophenyl)-N-(3-(2-(4-(2-methoxyethyl)piperazin-1-yl)ethyl)phenyl)-5,6-dihydrobenzo[h]quinazolin-2-amine]
The melting point of the first is higher: 199 to 201 °C for the first, 148 to 150 °C for the second.
